The values below come from patent US8557872B2, “Compounds, isomer thereof, or pharmaceutically acceptable salts thereof as vanilloid receptor antagonist; and pharmaceutical compositions containing the same” (Amorepacific Corporation, priority 2008, dated 2013).

Data set [1] can be described thus: PK study in rats, single oral administration. Format: in vivo, rat. The following applies: for Cmax / AUC / Tmax / half-life: rat, single oral administration, plasma. More on the design: AUC: concentration or dose not given beside the values. The method, then:
Pharmacokinetics of compounds in rats were analyzed using the following experiment. Rats were fasted overnight prior to administration and until approximately 4 hours after administration. Rats were given a single oral administration of compound at same dose. Administration volume was 10 ml/kg. Blood samples were collected from the retro-orbital sinus at various times over the following 7 hrs. Immediately after each collection, plasmas were separated from blood cells by centrifugation and stored at −20° C. until the analysis was performed. The plasma samples were analyzed using a reverse phase high-performance chromatography (HPLC) method.

The target of data set [2] is T1, vanilloid receptor (Rattus norvegicus, UniProt O35433).
T1 construct: DRG nerve cells from the primary culture of 2 days were equilibrated by washing 4 times; endogenous in cells; host or cells: primary culture of dorsal root ganglion neurons from neonatal SD rats
As to the kind of experiment: 45Ca influx test (calcium uptake) in primary cultured DRG neurons, capsaicin 0.5 μM. Type of data set: cell-based. The method, then:
1) Separation of Spinal Dorsal Root Ganglia (DRG) in Newborn Rats and Primary Culture Thereof
Neonatal (2-3 day old or younger than 2-3 day old) SD rats were put in ice for 5 minutes to anesthetize and disinfected with 70% ethanol. […] The DRG were incubated sequentially at 37° C. for 30 mins in 200 U/ml collagenase and 2.5 mg/ml trypsin, separately. The ganglia were washed twice with DME/F12 medium supplemented with 10% horse serum, triturated through a fire-polished Pasteur pipette, filtered through Nitex 80 membrane to obtain single cell suspension and the suspension was washed once more. This was subjected to centrifugation, then resuspended in cell culture medium at certain level of cell density. As the cell culture medium, DME/F12 medium supplemented with 10% horse serum was diluted with identical medium conditioned by C6 glioma cells 2 days on a confluent monolayer (1:1), and NGF (Nerve Growth Factor) was added to adjust 200 ng/ml as final concentration. After the cells were grown 2 days in medium where cytosine arabinoside (Ara-C, 100 μM) was added to kill dividing nonneuronal cells, medium was changed to one without Ara-C. The resuspended cells were plated at a density of 1500-2000 neurons/well onto Terasaki plates previously coated with 10 μg/ml poly-D-ornithine.
2) ^45Ca Influx Experiments
DRG nerve cells from the primary culture of 2 days were equilibrated by washing 4 times with HEPES (10 mM, pH 7.4)-buffered Ca^2+, Mg^2+-free HBSS (H-HBSS). The solution in each well was removed from the individual well. Medium containing the test compound plus capsaicin (final concentration 0.5 μM) and ^45Ca (final concentration 10 μCi/ml) in H-HBSS was added to each well and incubated at room temperature for 10 mins. Terasaki plates were washed five times with H-HBSS and dried at room temperature. To each well, 0.3% SDS (10 μl) was added to elute ^45Ca. After the addition of scintillation cocktail of into each well, the amount of ^45Ca influx into neuron was measured by counting radioactivity.

[3] abbreviates: Table 3, detection limit 0.100 mcg/ml.
Setting [4] is: Table 3, comparative compounds having tert-butyl-phenyl, read-out: IC50.
The mark [5] stands for this setting: Table 4, detection limit 0.100 mcg/ml.
The mark [6] stands for this setting: comparison with comparative compounds F and G, read-out: IC50 value.
The mark [7] stands for this setting: rat DRG neurons, capsaicin 0.5 μM, 45Ca, read-out: Antagonist Calcium Uptake Test (IC50).

Molecules are shown by their SMILES. Like-named read-outs stand apart in the source and are kept apart here.

T1 sequence (O35433 whole entry): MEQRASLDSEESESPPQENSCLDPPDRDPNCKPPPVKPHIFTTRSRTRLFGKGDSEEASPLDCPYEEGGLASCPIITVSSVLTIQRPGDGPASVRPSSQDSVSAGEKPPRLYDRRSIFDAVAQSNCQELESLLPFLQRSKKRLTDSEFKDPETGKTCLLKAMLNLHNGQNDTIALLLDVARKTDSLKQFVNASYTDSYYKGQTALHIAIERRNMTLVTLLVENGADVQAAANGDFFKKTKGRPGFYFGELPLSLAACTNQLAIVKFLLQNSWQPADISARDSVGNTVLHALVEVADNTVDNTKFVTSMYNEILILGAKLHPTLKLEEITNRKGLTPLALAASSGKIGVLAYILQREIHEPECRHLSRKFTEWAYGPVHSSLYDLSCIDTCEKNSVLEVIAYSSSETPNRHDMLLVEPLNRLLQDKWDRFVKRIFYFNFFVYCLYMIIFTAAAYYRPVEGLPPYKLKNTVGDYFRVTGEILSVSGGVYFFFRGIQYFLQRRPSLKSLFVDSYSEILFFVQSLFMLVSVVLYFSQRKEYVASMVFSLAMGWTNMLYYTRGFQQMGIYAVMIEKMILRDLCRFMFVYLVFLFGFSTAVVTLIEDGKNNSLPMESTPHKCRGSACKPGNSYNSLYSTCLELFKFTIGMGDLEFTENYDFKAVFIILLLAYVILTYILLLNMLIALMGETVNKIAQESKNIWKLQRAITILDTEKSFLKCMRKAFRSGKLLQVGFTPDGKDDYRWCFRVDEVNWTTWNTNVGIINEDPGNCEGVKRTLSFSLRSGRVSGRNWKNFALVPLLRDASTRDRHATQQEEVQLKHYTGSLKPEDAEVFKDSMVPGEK

In data set [1] (setting [3]), `C=Cc1cc(CNC(=O)/C=C/c2ccc(C(C)(C)C)cc2)cc(F)c1NS(C)(=O)=O` [Comp Cpd A, reference compound] registered a Cmax of under 100 ng/mL. Take `CC(C)(C)c1ccc(/C=C/C(=O)NCc2cc(F)c(NS(C)(=O)=O)c(F)c2)cc1` [Comp Cpd B, reference compound]: in data set [1] (Table 3), the AUC is 72 ng·h/mL and the Tmax was found to be 0.5 h. Also, the Cmax in data set [1] (setting [3]) is 69 ng/mL. The half-life in data set [1] (Table 3, read-out: T½ (converted)) was 27.7 min.

In data set [1] (setting [3]), `C=Cc1cc(CNC(=O)/C=C/c2ccc(C(C)(C)C)cc2NC(C)C)cc(F)c1NS(C)(=O)=O` [Comp Cpd C, reference compound] showed a Cmax of under 100 ng/mL. `CCCNc1cc(C(C)(C)C)ccc1/C=C/C(=O)NCc1cc(F)c(NS(C)(=O)=O)c(F)c1` [Comp Cpd D, reference compound] gave a Cmax in data set [1] (setting [3]) of under 100 ng/mL. For the same compound, in data set [2] (setting [4]), the IC50 was found to be 85 nM. The like results for `CCCc1cc(C(C)(C)C)ccc1/C=C/C(=O)N[C@H](C)c1cc(F)c(NS(C)(=O)=O)c(F)c1` [Comp Cpd E, reference compound] were, in that order, under 100 ng/mL and 2300 nM. For `C=Cc1cc(CNC(=O)/C=C/c2ccc(C(F)(F)F)cc2)ccc1NS(C)(=O)=O` [Comp Cpd F, reference compound], in data set [1] (Table 4), the AUC turned out to be 40100 ng·h/mL and the Tmax came out at 2 h. Also, in data set [1] (setting [5]), the Cmax amounted to 5000 ng/mL. In data set [1] (Table 4, read-out: T1/2 (converted)), the half-life was 275 min. Moreover, the IC50 in data set [2] (setting [6]) is 570 nM. With `C[C@@H](NC(=O)/C=C/c1ccc(C(F)(F)F)cc1)c1cc(F)c(NS(C)(=O)=O)c(F)c1` [Comp Cpd G, reference compound], the “PK properties (in terms of T max and AUC)” value in data set [1] (oral, in words) was “poor PK-properties”. Further, in data set [1] (setting [5]), the maximum concentration (Cmax) was under 100 ng/mL. Besides, the IC50 in data set [2] (Table 4, comparative compounds having CF3-phenyl, read-out: IC50) is over 10000 nM; in data set [2] (setting [6]) it was over 10000 nM. Regarding `CCCCOc1cc(F)ccc1/C=C/C(=O)NCc1cc(F)c(NS(C)(=O)=O)c(F)c1` [Example 34, 3-(2-Butoxy-4-fluoro-phenyl)-N-(3,5-difluoro-4-methanesulfonylamino-benzyl)-acrylamide], in data set [2] (setting [7]), the IC50 was determined as 980 nM. Still for that read-out and setting: the value for `C#Cc1cc(CNC(=O)/C=C/c2ccc(C(F)(F)F)cc2CCC)cc(F)c1NS(C)(=O)=O` [Example 35, N-(3-Ethynyl-5-fluoro-4-methanesulfonylamino-benzyl)-3-(2-propyl-4-trifluoromethyl-phenyl)-acrylamide] was 92 nM; that for `CCCCc1cc(C(F)(F)F)ccc1/C=C/C(=O)N[C@H](C)c1ccc(NS(C)(=O)=O)c(F)c1` [Example 36, (R)-3-(2-Butyl-4-trifluoromethyl-phenyl)-N-[1-(3-fluoro-4-methanesulfonylamino-phenyl)-ethyl]-acrylamide] was 46 nM; that for `CCC(C)Oc1cc(C(F)(F)F)ccc1/C=C/C(=O)N[C@H](C)c1cc(F)c(NS(C)(=O)=O)c(F)c1` (stereo partly drawn) [Example 39, (R)-3-(2-sec-Butoxy-4-trifluoromethyl-phenyl)-N-[1-(3,5-difluoro-4-methanesulfonylamino-phenyl)-ethyl]-acrylamide] was 22 nM. The same measure, in the same setting: with `CCC(C)Oc1cc(F)ccc1/C=C/C(=O)N[C@H](C)c1cc(F)c(NS(C)(=O)=O)c(F)c1` (stereo partly drawn) [Example 40, (R)-3-(2-sec-Butoxy-4-fluoro-phenyl)-N-[1-(3,5-difluoro-4-methanesulfonylamino-phenyl)-ethyl]-acrylamide] the figure was 100 nM; with `CCC(C)Oc1cc(F)ccc1/C=C/C(=O)NCc1cc(F)c(NS(C)(=O)=O)c(F)c1` (stereo not drawn) [Example 41, 3-(2-sec-Butoxy-4-fluoro-phenyl)-N-(3,5-difluoro-4-methanesulfonylamino-benzyl)-acrylamide], 550 nM; with `CCNc1cc(F)ccc1/C=C/C(=O)N[C@H](C)c1cc(F)c(NS(C)(=O)=O)c(F)c1` [Example 42, (R)—N-[1-(3,5-Difluoro-4-methanesulfonylamino-phenyl)-ethyl]-3-(2-ethylamino-4-fluoro-phenyl)-acrylamide], 110 nM. Still for that read-out and setting: the value for `CCNc1cc(F)ccc1/C=C/C(=O)NCc1cc(F)c(NS(C)(=O)=O)c(F)c1` [Example 43, N-(3,5-Difluoro-4-methanesulfonylaminobenzyl)-3-(4-fluoro-2-ethylaminophenyl)acrylamide] was 320 nM. Take `CCCc1cc(C(F)(F)F)ccc1/C=C/C(=O)N[C@H](C)c1ccc(NS(C)(=O)=O)c(F)c1` [Example 44]: in data set [2] (setting [7]), the IC50 was determined as 91 nM. As for `CCCCNc1cc(F)ccc1/C=C/C(=O)N[C@H](C)c1cc(F)c(NS(C)(=O)=O)c(F)c1` [Example 45, (R)-3-(2-Butylamino-4-fluoro-phenyl)-N-[1-(3,5-difluoro-4-methanesulfonylamino-phenyl)-ethyl]-acrylamide], the IC50 in data set [2] (setting [7]) is 65 nM.

Turning to `CCCCNc1cc(F)ccc1/C=C/C(=O)NCc1cc(F)c(NS(C)(=O)=O)c(F)c1` [Example 46, 3-(2-Butylamino-4-fluoro-phenyl)-N-(3,5-difluoro-4-methanesulfonylamino-benzyl)-acrylamide], in data set [2] (setting [7]), the IC50 was 180 nM. As to `CC(C)Cc1cc(C(F)(F)F)ccc1/C=C/C(=O)N[C@H](C)c1cc(F)c(NS(C)(=O)=O)c(F)c1` [Example 47, (R)—N-[1-(3,5-Difluoro-4-methanesulfonylamino-phenyl)-ethyl]-3-(2-isobutyl-4-trifluoromethyl-phenyl)-acrylamide], in data set [2] (setting [7]), the IC50 was 94 nM. For `CCCc1cc(C(F)(F)F)ccc1/C=C(\C)C(=O)N[C@H](C)c1cc(F)c(NS(C)(=O)=O)c(F)c1` [Example 48, (R)—N-[1-(3,5-Difluoro-4-methanesulfonylamino-phenyl)-ethyl]-2-methyl-3-(2-propyl-4-trifluoromethyl-phenyl)-acrylamide], the IC50 in data set [2] (setting [7]) turned out to be 530 nM. On the same count and under the same terms, with `CCCc1cc(C(F)(F)F)ccc1/C=C(\C)C(=O)N[C@H](C)c1ccc(NS(C)(=O)=O)c(F)c1` [Example 49, (R)—N-[1-(3-Fluoro-4-methanesulfonylamino-phenyl)-ethyl]-2-methyl-3-(2-propyl-4-trifluoromethyl-phenyl)-acrylamide] the figure was 1400 nM; with `C[C@@H](NC(=O)/C=C/c1ccc(C(F)(F)F)cc1OCC1CCCCC1)c1cc(F)c(NS(C)(=O)=O)c(F)c1` [Example 50, (R)-3-(2-Cyclohexylmethoxy-4-trifluoromethyl-phenyl)-N-[1-(3,5-difluoro-4-methanesulfonylamino-phenyl)-ethyl]-acrylamide], 210 nM; with `CS(=O)(=O)Nc1c(F)cc(CNC(=O)/C=C/c2ccc(C(F)(F)F)cc2N2CCCCC2)cc1F` [Example 51, N-(3,5-Difluoro-4-methanesulfonylamino-benzyl)-3-(2-piperidin-1-yl-4-trifluoromethyl-phenyl)-acrylamide], 3300 nM. Take `C[C@@H](NC(=O)/C=C/c1ccc(C(F)(F)F)cc1N1CCCCC1)c1cc(F)c(NS(C)(=O)=O)c(F)c1` [Example 52]: in data set [2] (setting [7]), the IC50 is 340 nM. For `CCCc1cc(F)ccc1/C=C/C(=O)N[C@H](C)c1cc(F)c(NS(C)(=O)=O)c(F)c1` [Example 53, (R)—N-[1-(3,5-Difluoro-4-methanesulfonylamino-phenyl)-ethyl]-3-(4-fluoro-2-propyl-phenyl)-acrylamide], the IC50 in data set [2] (setting [7]) came to 170 nM. Consider `CCCNc1cc(C(F)(F)F)ccc1CCC(=O)N[C@H](C)c1cc(F)c(NS(C)(=O)=O)c(F)c1` [Example 55, (R)—N-[1-(3,5-difluoro-4-methanesulfonylamino-phenyl)-ethyl]-3-(2-propylamino-4-trifluoromethyl-phenyl)-propionamide], for which the IC50 in data set [2] (setting [7]) is 190 nM. On the same count and under the same terms, with `CCCNc1cc(C(F)(F)F)ccc1CCC(=O)NCc1cc(F)c(NS(C)(=O)=O)c(F)c1` [Example 56, N-(3,5-difluoro-4-methanesulfonylamino-benzyl)-3-(2-propylamino-4-trifluoromethyl-phenyl)-propionamide] the figure was 350 nM.

A word on the Cmax: it is the peak of the concentration-time curve. By AUC is commonly meant the area under the concentration-time curve, a measure of exposure. In general, Tmax refers to the time from dosing to the highest level. The IC50 is the point on the concentration scale where inhibition reaches its midpoint.
